Results taken from patent publication US20250295711A1, “FOOD SUPPLEMENT” (FONTERRA CO-OPERATIVE GROUP LIMITED, priority 2022, published 2025).
Marks after values point to notes of the source that are not given here.

Key:
CUMS rats [1] = assay: Open field test in CUMS (chronic unpredictable mild stress) rats; format: in vivo, rat; details: for Total Distance Travelled in Open Field Test, After CUMS only (x ± S): after 40 days CUMS; for Total Distance Travelled in Open Field Test, After CUMS only (x ± S) / Vertical Movement (Number of Times Standing Up) in Open Field Test, After CUMS (x ± S): before intervention; for Vertical Movement (Number of Times Standing Up) in Open Field Test, After intervention (x ± S): after CUMS with intervention; for Total Distance Travelled in Open Field Test, After CUMS + intervention (x ± S): after further 40 days CUMS with intervention; for Total Distance Travelled in Open Field Test, Base line (x ± S) / Vertical Movement (Number of Times Standing Up) in Open Field Test, Base line (x ± S): before CUMS and before intervention
Method: (§1) A series of experiments were conducted using the chronic unpredictable mild stress (CUMS) rodent model. Rats were exposed daily to any two of the following mild physiological stresses selected at random: • 12 hours of water deprivation • 12 hours of food deprivation • 8 hours of damp sawdust • 24 hours of reversed light/dark cycle • 2 minutes of tail pinching • 1 hour of 60 Hz noise • 15 minutes of cage shaking • Swimming in 4° C. water for 5-10 minutes • 2 hours of restraining.
(§2) Six groups of rats were assessed: • 1. Control rats: rats raised normally without stress treatments and without nutritional or drug interventions. • 2. CUMS rats: rats subjected to the CUMS protocol but without nutritional or drug interventions. • 3. CUMS HN001: rats subjected to the CUMS protocol and given HN001. • 4. CUMS HN019: rats subjected to the CUMS protocol and given HN019. • 5. CUMS HN001+HN019: rats subjected to the CUMS protocol given both HN001 and HN019. • 6.
(§3) Baseline assessments were then conducted, including blood collection. For the next 40 days, rats in groups 2-6 were exposed to CUMS treatments to induce depression symptoms associated with stress and anxiety.
(§4) Tests were then carried out to assess rat behaviours, such as the open field test and the elevated maze test (see FIG. 2). These are standard ways to measure rat stress and anxiety traits.

CUMS rats [2] = assay: Elevated-plus maze test in CUMS rats; format: in vivo, rat; details: for Time in Closed Arms in Elevated Plus Maze, After intervention (x ± S) / Total Distance Travelled in Elevated Maze Test, After intervention (x ± S): after CUMS with intervention; for Time in Closed Arms in Elevated Plus Maze, After CUMS (x ± S) / Total Distance Travelled in Elevated Maze Test, After CUMS (x ± S): before intervention; for Time in Closed Arms in Elevated Plus Maze, Base line (x ± S) / Total Distance Travelled in Elevated Maze Test, Base line (x ± S): before CUMS and before intervention
Method: as §1, §2, §3, §4

TNF-α = TNF-α content in serum, brain and colon of CUMS rats; format: in vivo, rat; details: for TNF-α Content, Brain / TNF-α Content, Colon: end of experiment; for TNF-α Content, serum-after intervention: after CUMS with intervention; for TNF-α Content, serum-after CUMS: before intervention
Method: as §1, §2, §3
(§5) A series of blood markers were assessed.

IL-6 = IL-6 content in serum, brain and colon of CUMS rats; format: in vivo, rat; details: for IL-6 Content, Brain / IL-6 Content, Colon: end of experiment; for IL-6 Content, serum-after intervention: after CUMS with intervention; for IL-6 Content, serum-after CUMS: before intervention
Method: as §1, §2, §3, §5

[3] = test system: Corticotropin Releasing Hormone (CRH); assay: Serum corticotropin releasing hormone content in CUMS rats; format: in vivo, rat; details: for Serum Corticotropin Releasing Hormone (CRH) Content, After intervention: after CUMS with intervention; for Serum Corticotropin Releasing Hormone (CRH) Content, After CUMS: before intervention
Method: as §1, §2, §3

[4] = test system: Adrenocorticotropic Hormone (ACTH); assay: Serum adrenocorticotropic hormone content in CUMS rats; format: in vivo, rat; details: for Serum Adrenocorticotropic Hormone (ACTH) Content, After intervention: after CUMS with intervention; for Serum Adrenocorticotropic Hormone (ACTH) Content, After CUMS: before intervention
Method: as §1, §2, §3

[5] = Body weight gain of CUMS rats; format: in vivo, rat; details: FIG. 3
Method: as §1, §2, §3
The reduced weight gain in rats exposed to CUMS was improved by administration of HN001, HN019, or both (FIG. 3). Also, there were no differences in weight gain between CUMS groups.

brain and colon tissue = assay: HE staining of brain and colon tissues of CUMS rats; format: in vivo, rat; details: brain, FIG. 5
Source text: Brain tissues included two regions from the hippocampus (Dentate Gyrus (DG) and CA1) and a region from the cortex (P2).
Brain and colon tissue were stained using the HE method. Brain tissue included two regions from the hippocampus (Dentate Gyrus (DG) and CA1) and a region from the cortex (P2). The results are shown in FIG. 5 and reveal that for the control group, neurons in hippocampal regions (dentate gyrus (DG) and Ca1) and the cortex (P2) were normal, orderly, tightly packed cells. The cells had expected morphology, homogeneous cytoplasmic staining, and no increased interstitial or abnormal changes.
For the colon tissue, control intestinal villi were arranged neatly, with normal cell morphology and no obvious damage was seen.

[6] = test system: 5-HT, DA, NE, Glu, GABA, HIAA, DOPAC, HVA; assay: Neurotransmitters and their metabolites in serum and brain of CUMS rats; format: in vivo, rat; details: FIG. 6
Source text: The level of serum and brain 5-HT, DA, NE, Glu and GABA were detected at the end of the experiment (A, B, D, E, G, H, J, K, L). (C), (F) and (I) show the metabolites of monoamine neurotransmitters in brain. The results are presented as the mean±SEM (n=10). #P<0.05 compared with CUMS group.
HIAA, DOPAC and HVA, as the metabolites of 5-HT, DA and NE, were increased in rat brains after CUMS stimulation.

intestinal microbiota = assay: 16S rRNA sequencing of faecal samples (gut microbiota) of CUMS rats; format: in vivo, rat; details: for CUMS-induced alterations of relative abundance at phylum level: Firmicutes, Bacteroidetes, Verrucomicrobias, Proteobacterias, Actinobacterias; for CUMS-induced changes at genus level: Lactobacillus, Eubacterium coprostanoligenes group, Lachnospiraceae-NK4A136-group; for CUMS-induced changes of relative abundance at family level: Ruminococcaceae, Lactobacillaceae, Lachnospiraceae; for Sobs, ACE, Chao1 and Shannon index (alpha-diversity): compared with CUMS group, FIG. 9; for Beta diversity, PCoA plot: in comparison with CUMS rats, FIG. 10A; for Firmicutes to Bacteroidetes ratio (F/B ratio): increased after CUMS stimulation
Method: To evaluate whether probiotics, as well as CUMS, alter intestinal microbiota, 16S rRNA sequencing of faecal samples was performed. Alpha-diversity, as measured by richness (Sobs index, Chao1 index and ACE index; see FIGS. […]), and diversity (Shannon index; see FIG. 9 D), was decreased after CUMS. Beta diversity analysis was evaluated through PCoA to assess differences in microbial composition among six groups (FIG. 10A).

Cortisol = Cortisol (HPA axis) after stress; format: in vivo; details: stress induced; no data shown

## Bifidobacterium animalis subsp. lactis strain HN019
CUMS rats [1]
  Total Distance Travelled in Open Field Test, After CUMS only (x ± S): 5.42 ± 3.11^a Metres
  Vertical Movement (Number of Times Standing Up) in Open Field Test, After intervention (x ± S): 11.63 ± 4.90^b
  Vertical Movement (Number of Times Standing Up) in Open Field Test, After CUMS (x ± S): 4.50 ± 3.42^a
  Total Distance Travelled in Open Field Test, After CUMS + intervention (x ± S): 12.21 ± 2.54^b Metres
  Total Distance Travelled in Open Field Test, Base line (x ± S): 24.65 ± 3.59 Metres
  Vertical Movement (Number of Times Standing Up) in Open Field Test, Base line (x ± S): 19.62 ± 6.80
CUMS rats [2]
  Time in Closed Arms in Elevated Plus Maze, After intervention (x ± S): 215.28 ± 17.98^b Seconds
  Total Distance Travelled in Elevated Maze Test, After intervention (x ± S): 7.91 ± 0.65^b Metres
  Time in Closed Arms in Elevated Plus Maze, After CUMS (x ± S): 288.83 ± 11.57^a Seconds
  Total Distance Travelled in Elevated Maze Test, After CUMS (x ± S): 3.08 ± 2.21^a Metres
  Time in Closed Arms in Elevated Plus Maze, Base line (x ± S): 215.83 ± 23.30 s
  Total Distance Travelled in Elevated Maze Test, Base line (x ± S): 9.35 ± 1.38 Metres
TNF-α
  TNF-α Content, Brain: 60.67 ± 6.65^b pg/ml
  TNF-α Content, Colon: 71.34 ± 10.46^b pg/ml
  TNF-α Content, serum-after intervention: 12.08 ± 3.68^b pg/ml
  TNF-α Content, serum-after CUMS: 23.97 ± 3.69^a pg/ml
IL-6
  IL-6 Content, Brain: 19.25 ± 4.78^b pg/ml
  IL-6 Content, Colon: 31.88 ± 7.83^b pg/ml
  IL-6 Content, serum-after intervention: 10.19 ± 4.47^b pg/ml
  IL-6 Content, serum-after CUMS: 13.08 ± 4.30^a pg/ml
[3]
  Serum Corticotropin Releasing Hormone (CRH) Content, After intervention: 2.47 ± 1.34^b pg/ml
  Serum Corticotropin Releasing Hormone (CRH) Content, After CUMS: 5.19 ± 3.48^a pg/ml
[4]
  Serum Adrenocorticotropic Hormone (ACTH) Content, After intervention: 2.13 ± 1.88^b pg/ml
  Serum Adrenocorticotropic Hormone (ACTH) Content, After CUMS: 5.53 ± 3.43^a pg/ml
[5]
  Reduced weight gain in rats exposed to CUMS: improved
Brain and colon tissue
  Morphology of hippocampus (DG, CA1) and cortex (P2): CUMS-associated damage was largely reduced
[6]
  Effects of CUMS on neurotransmitters (5-HT, DA, NE, Glu, GABA) and metabolites: able to reverse the effects of CUMS
Intestinal microbiota
  CUMS-induced alterations of relative abundance at phylum level: alleviated the phylum alterations
  CUMS-induced changes at genus level: improved
  CUMS-induced changes of relative abundance at family level: reversed the changes of family
  Sobs, ACE, Chao1 and Shannon index (alpha-diversity): decreased
  Beta diversity, PCoA plot: marked differences
  Firmicutes to Bacteroidetes ratio (F/B ratio): decreased the F/B ratio
Cortisol
  Cortisol level: reduced closer to non-stressed control levels

## Lactocaseibacillus rhamnosus strain HN001
CUMS rats [1]
  Total Distance Travelled in Open Field Test, After CUMS only (x ± S): 5.64 ± 2.10^a Metres
  Vertical Movement (Number of Times Standing Up) in Open Field Test, After intervention (x ± S): 13.57 ± 4.39^b
  Vertical Movement (Number of Times Standing Up) in Open Field Test, After CUMS (x ± S): 3.43 ± 2.88^a
  Total Distance Travelled in Open Field Test, After CUMS + intervention (x ± S): 14.62 ± 7.97^b Metres
  Total Distance Travelled in Open Field Test, Base line (x ± S): 23.43 ± 8.42 Metres
  Vertical Movement (Number of Times Standing Up) in Open Field Test, Base line (x ± S): 19.67 ± 6.26
CUMS rats [2]
  Time in Closed Arms in Elevated Plus Maze, After intervention (x ± S): 220.28 ± 11.45^b Seconds
  Total Distance Travelled in Elevated Maze Test, After intervention (x ± S): 8.61 ± 1.63^b Metres
  Time in Closed Arms in Elevated Plus Maze, After CUMS (x ± S): 280.00 ± 9.58^a Seconds
  Total Distance Travelled in Elevated Maze Test, After CUMS (x ± S): 3.17 ± 1.88^a Metres
  Time in Closed Arms in Elevated Plus Maze, Base line (x ± S): 230.69 ± 23.78 s
  Total Distance Travelled in Elevated Maze Test, Base line (x ± S): 8.28 ± 0.81 Metres
TNF-α
  TNF-α Content, Brain: 61.99 ± 5.17^b pg/ml
  TNF-α Content, Colon: 79.89 ± 11.48^b pg/ml
  TNF-α Content, serum-after intervention: 12.88 ± 4.62^b pg/ml
  TNF-α Content, serum-after CUMS: 21.12 ± 6.40^a pg/ml
IL-6
  IL-6 Content, Brain: 20.44 ± 3.06v pg/ml
  IL-6 Content, Colon: 31.56 ± 9.00^b pg/ml
  IL-6 Content, serum-after intervention: 9.96 ± 4.10^b pg/ml
  IL-6 Content, serum-after CUMS: 14.01 ± 5.98^a pg/ml
[3]
  Serum Corticotropin Releasing Hormone (CRH) Content, After intervention: 2.38 ± 1.59^b pg/ml
  Serum Corticotropin Releasing Hormone (CRH) Content, After CUMS: 5.53 ± 2.77^a pg/ml
[4]
  Serum Adrenocorticotropic Hormone (ACTH) Content, After intervention: 3.12 ± 2.52^b pg/ml
  Serum Adrenocorticotropic Hormone (ACTH) Content, After CUMS: 5.85 ± 3.35^a pg/ml
[5]
  Reduced weight gain in rats exposed to CUMS: improved
Brain and colon tissue
  Morphology of hippocampus (DG, CA1) and cortex (P2): CUMS-associated damage was largely reduced
[6]
  Effects of CUMS on neurotransmitters (5-HT, DA, NE, Glu, GABA) and metabolites: able to reverse the effects of CUMS
Intestinal microbiota
  CUMS-induced alterations of relative abundance at phylum level: alleviated the phylum alterations
  CUMS-induced changes at genus level: improved
  CUMS-induced changes of relative abundance at family level: reversed the changes of family
  Sobs, ACE, Chao1 and Shannon index (alpha-diversity): decreased
  Beta diversity, PCoA plot: marked differences
  Firmicutes to Bacteroidetes ratio (F/B ratio): decreased the F/B ratio
Cortisol
  Cortisol level: reduced closer to non-stressed control levels
